According to article PMC6154534, “New Benzimidazole-1,2,4-Triazole Hybrid Compounds: Synthesis, Anticandidal Activity and Cytotoxicity Evaluation” (Molecules : A Journal of Synthetic Chemistry and Natural …, 2017):
≈ marks a conversion by molar mass, not a printed value.

Assays:
Candida species = assay: Anticandidal broth microdilution, results summarised over all strains; assay type: cell-based; conditions: summary over all four Candida strains; for MIC50: Candida, read-out: MIC50 against Candida species
Protocol: (§1) Synthesized compounds (5a-5ad) were evaluated for anticandidal activity against C. albicans (ATCC 24433), C. krusei (ATCC 6258), C. parapsilosis (ATCC 22019) and C. [NT] 90030). MIC50 values were evaluated via fluorometric measurements, using resazurin solution [56, 57]. […] [NT] 90030). MIC readings were carried out twice for each chemical agent. The yeasts were maintained in RPMI after overnight incubation at 37 °C. The inocula of test microorganisms adjusted to match the turbidity of a MacFarland 0.5 standard tube as determined with a spectrophotometer and the final inoculum size was 0.5-2.5 × 10^5 cfu/mL for antifungal assay. Testing was carried out in RPMI at pH = 7 and the two-fold serial dilutions technique was applied. The last well on the microplates containing only inoculated broth was kept as controls and the last well with no growth of microorganism was recorded to represent the MIC50 expressed in μg/mL. For the antifungal assays, the compounds were dissolved in DMSO. […] The completed plates were incubated for 24 h. At the end of the incubation, resazurin (20 μg/mL) was added into each well to control whether the growth in wells. Then, plates were allowed to incubate for 2 h. MIC50 values were determined using a microplate reader at […].

C. albicans (ATCC 24433) = assay: Anticandidal broth microdilution (EUCAST EDef 7.1), resazurin fluorometric readout; assay type: cell-based; conditions: Candida albicans, ATCC24433; ATCC 24433, RPMI pH 7, 24 h incubation
Protocol: as §1

C. krusei (ATCC 6258) = assay: as above; assay type: cell-based; conditions: Pichia kudriavzevii, ATCC6258; ATCC 6258, RPMI pH 7, 24 h incubation
Protocol: as §1

[1] = system: C. parapsilosis (ATCC 22019); assay: as above; assay type: cell-based; conditions: Lodderomyces parapsilosis, ATCC22019; ATCC 22019, RPMI pH 7, 24 h incubation; read-out: MIC50 C. parapsilopsis
Protocol: as §1

C. glabrata (ATCC 90030) = assay: as above; assay type: cell-based; conditions: Nakaseomyces glabratus, ATCC90030; ATCC 90030, RPMI pH 7, 24 h incubation
Protocol: as §1

[2] = system: NIH/3T3 mouse embryonic fibroblast cell line (ATCC CRL1658); assay: MTT cytotoxicity assay; assay type: cell-based; conditions: NIH3T3, tested 800 to 0.78 µg/mL, read-out: IC50 on NIH/3T3 mouse embryonic fibroblast cell lines
Source text: Toxicity is a key cause of failure at all steps of the new drug development process. The most part of safety-related problems occur at preclinical phases to predict preclinical safety liabilities earlier in the new drug development process. This approach allows to design and/or selection of better drug candidates that have more potentials to be marketed drugs. […] Cytotoxicities of selected compounds (5m, 5o, 5r, 5w, 5y, 5ab, and 5ad), displaying strong anticandidal activity and good predicted pharmacokinetics, were determined against NIH/3T3 mouse embryonic fibroblast cell lines (ATCC CRL1658).
Cytotoxicity was tested using the NIH/3T3 mouse embryonic fibroblast cell line (ATCC® CRL-1658™, London, UK). NIH/3T3 cells were incubated according to the supplier’s recommendations and they were seeded at 1 × 10^4 cells into each well of 96-well plates. MTT assay was performed as previously described. The compounds were tested in a concentration range of 800 µg/mL and 0.78 µg/mL concentrations. Percent inhibition was calculated for each concentration according to the formula below, and IC50 values were determined by plotting a concentration–response curve of inhibition percent versus compound concentrations tested.

Row | Structure (SMILES) | MIC50 (C. albicans (ATCC 24433)) [µg/mL] | MIC50 (C. krusei (ATCC 6258)) [µg/mL] | MIC50 [1] [µg/mL] | MIC50 (C. glabrata (ATCC 90030)) [µg/mL] | melting point [°C] | MIC50 (Candida species) [µg/mL] | anticandidal activity against Candida strains (in words) (Candida species) | IC50 [2] [µg/mL]
1 | Cn1c(SCC(=O)c2ccccc2)nnc1-c1ccc(-c2nc3ccc(F)cc3[nH]2)cc1 [Compound 5u, 2-((5-(4-(6-Fluoro-1H-benzimidazol-2-yl)phenyl)-4-methyl-4H-1,2,4-triazol-3-yl)thio)-1-phenylethan-1-one] | 12.5 (≈ 28.2 µM) | 50 (≈ 113 µM) | 50 (≈ 113 µM) | 25 (≈ 56.4 µM) | 277.1 | – | did not show strong activity | –
2 | CCn1c(SCC(=O)c2ccc(Cl)cc2)nnc1-c1ccc(-c2nc3ccc(Cl)cc3[nH]2)cc1 [Compound 5q, 2-((5-(4-(6-Chloro-1H-benzimidazol-2-yl)phenyl)-4-ethyl-4H-1,2,4-triazol-3-yl)thio)-1-(4-chlorophenyl)ethan-1-one] | 6.25 (≈ 12.3 µM) | 12.5 (≈ 24.6 µM) | 12.5 (≈ 24.6 µM) | 12.5 (≈ 24.6 µM) | 252.2 | – | did not show strong activity | –
3 | CCn1c(SCC(=O)c2ccc(Cl)cc2)nnc1-c1ccc(-c2nc3ccc(F)cc3[nH]2)cc1 [Compound 5aa, 1-(4-Chlorophenyl)-2-((4-ethyl-5-(4-(6-fluoro-1H-benzimidazol-2-yl)phenyl)-4H-1,2,4-triazol-3-yl)thio)ethan-1-one] | 6.25 (≈ 12.7 µM) | 6.25 (≈ 12.7 µM) | 12.5 (≈ 25.4 µM) | 12.5 (≈ 25.4 µM) | 241.4 | – | did not show strong activity | –
4 | CCn1c(SCC(=O)c2ccccc2)nnc1-c1ccc(-c2nc3ccc(Cl)cc3[nH]2)cc1 [Compound 5p, 2-((5-(4-(6-Chloro-1H-benzimidazol-2-yl)phenyl)-4-ethyl-4H-1,2,4-triazol-3-yl)thio)-1-phenylethan-1-one] | 12.5 (≈ 26.4 µM) | 50 (≈ 105 µM) | 25 (≈ 52.7 µM) | 12.5 (≈ 26.4 µM) | 248.5 | – | did not show strong activity | –
5 | Cn1c(SCC(=O)c2ccc(Cl)cc2)nnc1-c1ccc(-c2nc3ccc(F)cc3[nH]2)cc1 [Compound 5v, 1-(4-Chlorophenyl)-2-((5-(4-(6-fluoro-1H-benzimidazol-2-yl)phenyl)-4-methyl-4H-1,2,4-triazol-3-yl)thio)ethan-1-one] | 12.5 (≈ 26.2 µM) | 12.5 (≈ 26.2 µM) | 12.5 (≈ 26.2 µM) | 6.25 (≈ 13.1 µM) | 252.9 | 1.56 to 3.12 (≈ 3.26 to 6.53 µM) | did not show strong activity | –
6 | Cn1c(SCC(=O)c2ccc(Cl)cc2)nnc1-c1ccc(-c2nc3ccc(Cl)cc3[nH]2)cc1 [Compound 5l, 2-((5-(4-(6-Chloro-1H-benzimidazol-2-yl)phenyl)-4-methyl-4H-1,2,4-triazol-3-yl)thio)-1-(4-chlorophenyl)ethan-1-one] | 6.25 (≈ 12.6 µM) | 6.25 (≈ 12.6 µM) | 12.5 (≈ 25.3 µM) | 12.5 (≈ 25.3 µM) | 236.9 | – | – | –
7 | Cn1c(SCC(=O)c2ccc(F)cc2)nnc1-c1ccc(-c2nc3ccccc3[nH]2)cc1 [Compound 5c, 2-((5-(4-(1H-Benzimidazol-2-yl)phenyl)-4-methyl-4H-1,2,4-triazol-3-yl)thio)-1-(4-fluorophenyl)ethan-1-one] | 12.5 (≈ 28.2 µM) | 25 (≈ 56.4 µM) | 12.5 (≈ 28.2 µM) | 25 (≈ 56.4 µM) | 259.8 | – | – | –
8 | Cn1c(SCC(=O)c2ccccc2)nnc1-c1ccc(-c2nc3ccccc3[nH]2)cc1 [Compound 5a, 2-((5-(4-(1H-Benzimidazol-2-yl)phenyl)-4-methyl-4H-1,2,4-triazol-3-yl)thio)-1-phenylethan-1-one] | 100 (≈ 235 µM) | 100 (≈ 235 µM) | 100 (≈ 235 µM) | 100 (≈ 235 µM) | 269.5 | – | – | –
9 | CCn1c(SCC(=O)c2ccccc2)nnc1-c1ccc(-c2nc3ccccc3[nH]2)cc1 [Compound 5f, 2-((5-(4-(1H-Benzimidazol-2-yl)phenyl)-4-ethyl-4H-1,2,4-triazol-3-yl)thio)-1-phenylethan-1-one] | 100 (≈ 228 µM) | 100 (≈ 228 µM) | 100 (≈ 228 µM) | 100 (≈ 228 µM) | 220.9 | – | – | –
10 | CCn1c(SCC(=O)c2ccc(Cl)cc2)nnc1-c1ccc(-c2nc3ccccc3[nH]2)cc1 [Compound 5g, 2-((5-(4-(1H-Benzimidazol-2-yl)phenyl)-4-ethyl-4H-1,2,4-triazol-3-yl)thio)-1-(4-chlorophenyl)ethan-1-one] | 25 (≈ 52.7 µM) | 25 (≈ 52.7 µM) | 50 (≈ 105 µM) | 50 (≈ 105 µM) | 242.6 | – | – | –

These reach a lower MIC50 (C. albicans (ATCC 24433)). Values come first.

Row | MIC50 (C. albicans (ATCC 24433)) [µg/mL] | MIC50 (C. krusei (ATCC 6258)) [µg/mL] | MIC50 [1] [µg/mL] | MIC50 (C. glabrata (ATCC 90030)) [µg/mL] | melting point [°C] | MIC50 (Candida species) [µg/mL] | Structure (SMILES) | anticandidal activity against Candida strains (in words) (Candida species) | IC50 [2] [µg/mL]
11 | 0.78 (≈ 1.64 µM) | 1.56 (≈ 3.28 µM) | 0.78 (≈ 1.64 µM) | 1.56 (≈ 3.28 µM) | 251 | 0.78 to 1.56 (≈ 1.64 to 3.28 µM) | CCn1c(SCC(=O)c2ccc(F)cc2)nnc1-c1ccc(-c2nc3ccc(F)cc3[nH]2)cc1 [Compound 5ab, 2-((4-Ethyl-5-(4-(6-fluoro-1H-benzimidazol-2-yl)phenyl)-4H-1,2,4-triazol-3-yl)thio)-1-(4-fluorophenyl)ethan-1-one] | – | 43.1 ± 2.88 (≈ 90.7 µM)
12 | 0.78 (≈ 1.59 µM) | 1.56 (≈ 3.17 µM) | 1.56 (≈ 3.17 µM) | 0.78 (≈ 1.59 µM) | 265.5 | 0.78 to 1.56 (≈ 1.59 to 3.17 µM) | CCn1c(SCC(=O)c2ccc(F)cc2)nnc1-c1ccc(-c2nc3ccc(Cl)cc3[nH]2)cc1 [Compound 5r, 2-((5-(4-(6-Chloro-1H-benzimidazol-2-yl)phenyl)-4-ethyl-4H-1,2,4-triazol-3-yl)thio)-1-(4-fluorophenyl)ethan-1-one] | – | 13.9 ± 0.69 (≈ 28.3 µM)
13 | 1.56 (≈ 2.96 µM) | 1.56 (≈ 2.96 µM) | 1.56 (≈ 2.96 µM) | 1.56 (≈ 2.96 µM) | 223.3 | 1.56 to 3.12 (≈ 2.96 to 5.93 µM) | CCn1c(SCC(=O)c2ccc(Cl)cc2Cl)nnc1-c1ccc(-c2nc3ccc(F)cc3[nH]2)cc1 [Compound 5ac, 1-(2,4-Dichlorophenyl)-2-((4-ethyl-5-(4-(6-fluoro-1H-benzimidazol-2-yl)phenyl)-4H-1,2,4-triazol-3-yl)thio)ethan-1-one] | – | –
14 | 0.78 (≈ 1.53 µM) | 0.78 (≈ 1.53 µM) | 0.78 (≈ 1.53 µM) | 1.56 (≈ 3.06 µM) | 250.6 | 0.78 to 1.56 (≈ 1.53 to 3.06 µM) | CCn1c(SCC(=O)c2ccc(F)cc2F)nnc1-c1ccc(-c2nc3ccc(Cl)cc3[nH]2)cc1 [Compound 5t, 2-((5-(4-(6-Chloro-1H-benzimidazol-2-yl)phenyl)-4-ethyl-4H-1,2,4-triazol-3-yl)thio)-1-(2,4-difluorophenyl)ethan-1-one] | – | –
15 | 0.78 (≈ 1.57 µM) | 1.56 (≈ 3.15 µM) | 0.78 (≈ 1.57 µM) | 1.56 (≈ 3.15 µM) | 264.9 | 0.78 to 1.56 (≈ 1.57 to 3.15 µM) | Cn1c(SCC(=O)c2ccc(F)cc2F)nnc1-c1ccc(-c2nc3ccc(Cl)cc3[nH]2)cc1 [Compound 5o, 2-((5-(4-(6-Chloro-1H-benzimidazol-2-yl)phenyl)-4-methyl-4H-1,2,4-triazol-3-yl)thio)-1-(2,4-difluorophenyl)ethan-1-one] | – | 1.63 ± 0.02 (≈ 3.29 µM)
16 | 1.56 (≈ 2.95 µM) | 1.56 (≈ 2.95 µM) | 3.12 (≈ 5.9 µM) | 3.12 (≈ 5.9 µM) | 274.2 | 1.56 to 3.12 (≈ 2.95 to 5.9 µM) | Cn1c(SCC(=O)c2ccc(Cl)cc2Cl)nnc1-c1ccc(-c2nc3ccc(Cl)cc3[nH]2)cc1 [Compound 5n, 2-((5-(4-(6-Chloro-1H-Benzimidazol-2-yl)phenyl)-4-methyl-4H-1,2,4-triazol-3-yl)thio)-1-(2,4-dichlorophenyl)ethan-1-one] | – | –
17 | 1.56 (≈ 2.87 µM) | 3.12 (≈ 5.75 µM) | 1.56 (≈ 2.87 µM) | 3.12 (≈ 5.75 µM) | 192 | 1.56 to 3.12 (≈ 2.87 to 5.75 µM) | CCn1c(SCC(=O)c2ccc(Cl)cc2Cl)nnc1-c1ccc(-c2nc3ccc(Cl)cc3[nH]2)cc1 [Compound 5s, 2-((5-(4-(6-Chloro-1H-benzimidazol-2-yl)phenyl)-4-ethyl-4H-1,2,4-triazol-3-yl)thio)-1-(2,4-dichlorophenyl)ethan-1-one] | – | –
